The target in one series is BCL-2 (Homo sapiens (Human), UniProt P10415). Briefly: BCL-2 TR-FRET Assay (primary PPI inhibition). It is filed as binding. To be noted: 60 min incubation; read-out: BCL2 (IC50 code, BCL-2 TR-FRET). The essentials: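 Mixture of 3 ng BCL-2, anti-His Tb donor, dye-labeled acceptor and BCL-2 peptide ligand, incubated 60 min with test compound. TR-FRET read at 340 nm excitation, 620/665 nm emission, 60 µs delay, 500 µs integration.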

In another series the target is BCL-XL (Homo sapiens (Human), UniProt Q07817). Briefly: BCL-XL TR-FRET Assay (primary PPI inhibition). The conditions noted are these: 60 min incubation; read-out: BCLxL (IC50 code, BCL-XL TR-FRET). The series is classed as binding. An outline of the steps:
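TR-FRET displacement of a dye-labelled BCL-XL peptide ligand from His-tagged BCL-XL (10.5 ng) detected with a Tb-labelled anti-His donor. Incubation ran 60 min with test compound. Readout used 340 nm excitation and 620/665 nm emission with a 60 µs delay.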
On the technique in general: Time-resolved FRET reads energy transfer from a long-lived donor to a nearby acceptor.

The target of a further series is MCL-1 (Homo sapiens (Human), UniProt Q07820). Briefly: MCL-1 TR-FRET Assay (primary PPI inhibition). The series is classed as binding. To be noted: 60 min incubation; read-out: MCL1 IC50. The protocol:
MCL-1 TR-FRET Assay (BPS Bioscience, #79506)
The following assay concentrations and times were used: 10 ng MCL-1, 5 μl of 1:200 anti-His Tb-labeled donor, 5 μl of 1:200 Dye-labeled acceptor, 5 μl of 1:10 MCL-1 Peptide Ligand, and 2 μl of test compound, with 60 min incubation time. The results of the assay were read using a Clariostar (BMG Labtech) plate reader with the following parameters: TR FRET, 340ex/620 and 665em; 60 μsec Delay; and 500 μsec integration.

A further series relates to RS4-11 cells. Briefly: Cell viability assay (CellTiter-Glo), RS4-11. It is filed as cell-based. The conditions noted are these: Homo sapiens, 72 h, 3 days, read-out: RS4-11 (CC50 code). The protocol:
(§1) Culture medium for HEK293—DMEM (PanEco, Cat #C420) was used. RPMI-1640 (PanEco, Cat #C363) was used for the rest of the cell lines.
(§2) Compounds were prepared as 200× stocks with serial dilution in 100% DMSO with a final concentration of 1×.
(§3) […] were dispersed in 40 μL aliquots in 384-well plates at a concentration of 2000 cells per well for HEK293 and at a concentration of 4000 cells per well for the rest of the cell lines using a robotic station Biomek (Beckman). Before adding compounds, the cells were incubated at 37° C. (HEK293 were incubated for a day before adding compounds).
(§4) A dilution plate was prepared by pouring 78 μL of the appropriate culture medium using a robotic station Biomek (Beckman). Sequentially, using a robotic station, 2 μL of substances were taken and added to 78 μL of culture medium (dilution of compounds 40×). 10 μL aliquots were taken and added to the plates of the cells (dilution of compounds 5×). The plates were incubated for 3 days at a temperature 37° C. After 3 days, 10 μL of CellTiter-Glo (Promega) was added to the cells and the luminescence was measured.
(In general: ATP-based viability assays read luminescence as a measure of living cells.)

A further series deals with MOLT-4 cells. Briefly: Cell viability assay (CellTiter-Glo), MOLT-4. It is filed as cell-based. The conditions noted are these: Homo sapiens, 72 h, 3 days, read-out: MOLT-4 (CC50 code). The protocol:
as §1, §2, §3, §4

Series [1] is described as follows: Cell viability assay (CellTiter-Glo), HEK293. It is filed as cell-based. To be noted: human, HEK293 cells, read-out: HEK293 (CC50 code). The protocol:
as §1, §2, §3, §4

Series [2] has as its system caspase-3 and -7 activities in RS4-11 cells. In words: Caspase-3/7 activation (Caspase-Glo 3/7) in RS4-11 cells. It is filed as cell-based. To be noted: Homo sapiens, 3.5 h incubation, read-out: Cas-3/7 (EC50 code). As to the method:
The Caspase-Glo 3/7 Assay is homogeneous, luminescent assay that measures caspase-3 and -7 activities. The assay provides a luminogenic caspase-3/7 substrate, which contains the tetrapeptide sequence DEVD, in a reagent optimized for caspase activity.
Incubate RS4-11 cells with varying concentrations of test compounds for 3.5 h in a humidified incubator at 37° C. and 5% CO2 and 30 min at r.t. Add 15 μl Caspase-Glo reagent to each well and incubate the plate for 30 min at r.t. Read on ClarioStar Plus instrument.
Promega Caspase-Glo (Promega, #8212); Frozen RS4-11 cells; 384-well white plate (Corning, #3570).
ClarioStar Plus; Biomek FX for liquid handling (Beckman Coulter).

Bounds are passed on as bounds.

Chain of BCL-2 (P10415 whole entry): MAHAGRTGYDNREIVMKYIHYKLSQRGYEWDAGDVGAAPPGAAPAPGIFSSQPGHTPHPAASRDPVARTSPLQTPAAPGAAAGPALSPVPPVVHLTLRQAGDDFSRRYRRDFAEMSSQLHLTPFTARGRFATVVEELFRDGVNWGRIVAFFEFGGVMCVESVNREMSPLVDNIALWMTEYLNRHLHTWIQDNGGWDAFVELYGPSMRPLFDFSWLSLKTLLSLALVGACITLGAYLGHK
Chain of BCL-XL (Q07817 whole entry): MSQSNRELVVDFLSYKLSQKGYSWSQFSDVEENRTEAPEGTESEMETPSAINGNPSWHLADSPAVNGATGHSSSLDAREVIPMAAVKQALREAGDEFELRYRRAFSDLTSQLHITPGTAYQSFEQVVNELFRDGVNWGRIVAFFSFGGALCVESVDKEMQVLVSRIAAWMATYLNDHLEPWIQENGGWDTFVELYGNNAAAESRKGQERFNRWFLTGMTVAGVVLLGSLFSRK
Chain of MCL-1 (Q07820 whole entry): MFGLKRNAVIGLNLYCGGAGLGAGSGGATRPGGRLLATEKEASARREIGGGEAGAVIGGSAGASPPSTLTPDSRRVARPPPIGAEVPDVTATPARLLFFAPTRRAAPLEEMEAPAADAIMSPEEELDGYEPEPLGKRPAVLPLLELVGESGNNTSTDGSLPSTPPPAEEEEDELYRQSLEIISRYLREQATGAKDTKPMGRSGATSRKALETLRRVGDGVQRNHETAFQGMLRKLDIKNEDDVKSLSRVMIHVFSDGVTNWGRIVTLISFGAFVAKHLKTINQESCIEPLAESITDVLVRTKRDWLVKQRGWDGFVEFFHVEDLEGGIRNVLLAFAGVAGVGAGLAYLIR

A word on the IC50: it is the concentration that gives 50% inhibition. In general, CC50 refers to the concentration that lowers cell viability or growth by half. Regarding `COCCNC(=O)c1ccc(CN(C(=O)c2cc(-c3cc4c(cc3C(=O)N3Cc5ccccc5C[C@H]3CN3CCOCC3)OCO4)n3c2CCCC3)c2ccc(O)cc2)cc1` [Compound 1, N-(4-hydroxyphenyl)-N-{4-[(2-methoxyethyl)carbamoyl]benzyl}-3-(6-{[(3S)-3-(morpholin-4-ylmethyl)-3,4-dihydroisoquinolin-2(1H)-yl]carbonyl}-1,3-benzodioxol-5-yl)-5,6,7,8-tetrahydroindolizine-1-carboxamide], the IC50 is at most 0.005 µM on BCL-2, at most 2 µM at BCL-XL and above 100 µM on MCL-1. In addition, the cytotoxic concentration (CC50) in the series on RS4-11 cells was at most 0.1 µM; with MOLT-4 cells, 2 to 10 µM. In addition, in series [1], the 50% cytotoxic concentration (CC50) at 3 days was at most 10 µM. The EC50 in series [2] was at most 0.1 µM.
Take `COCCNC(=O)c1cccc(CN(C(=O)c2cc(-c3cc4c(cc3C(=O)N3Cc5ccccc5C[C@H]3CN3CCOCC3)OCO4)n3c2CCCC3)c2ccc(O)cc2)c1` [Compound 2, N-(4-hydroxyphenyl)-N-{3-[(2-methoxyethyl)carbamoyl]benzyl}-3-(6-{[(3S)-3-(morpholin-4-ylmethyl)-3,4-dihydroisoquinolin-2(1H)-yl]carbonyl}-1,3-benzodioxol-5-yl)-5,6,7,8-tetrahydroindolizine-1-carboxamide]: the results for the half-inhibitory concentration (IC50) at BCL-2 and at MCL-1 were at most 0.005 µM and above 100 µM, respectively. In addition, the half-maximal cytotoxic concentration (CC50) in the series with RS4-11 cells is 0.1 to 0.2 µM; in the series on MOLT-4 cells, above 10 µM. For the same compound, the half-maximal cytotoxic concentration (CC50) at 3 days in series [1] is at most 10 µM. Further, the EC50 in series [2] is above 0.25 µM.
Turning to `CN(C)CCNC(=O)c1cccc(CN(C(=O)c2cc(-c3cc4c(cc3C(=O)N3Cc5ccccc5C[C@H]3CN3CCOCC3)OCO4)n3c2CCCC3)c2ccc(O)cc2)c1` [Compound 6, N-(3-{[2-(dimethylamino)ethyl]carbamoyl}benzyl)-N-(4-hydroxyphenyl)-3-(6-{[(3S)-3-(morpholin-4-ylmethyl)-3,4-dihydroisoquinolin-2(1H)-yl]carbonyl}-1,3-benzodioxol-5-yl)-5,6,7,8-tetrahydroindolizine-1-carboxamide], the values for the IC50 on BCL-2 and at MCL-1 were at most 0.005 µM and above 100 µM, respectively. The 50% cytotoxic concentration (CC50) with RS4-11 cells is above 0.2 µM; in the series with MOLT-4 cells, above 10 µM. Also, the CC50 at 3 days in series [1] lay within 10 to 25 µM. Also, the EC50 in series [2] was above 0.25 µM.
Take `NC(=O)c1cccc(CN(C(=O)c2cc(-c3cc4c(cc3C(=O)N3Cc5ccccc5C[C@H]3CN3CCOCC3)OCO4)n3c2CCCC3)c2ccc(O)cc2)c1` [Compound 7, N-(3-carbamoylbenzyl)-N-(4-hydroxyphenyl)-3-(6-{[(3S)-3-(morpholin-4-ylmethyl)-3,4-dihydroisoquinolin-2(1H)-yl]carbonyl}-1,3-benzodioxol-5-yl)-5,6,7,8-tetrahydroindolizine-1-carboxamide]: the results for the IC50 on BCL-2, at BCL-XL and on MCL-1 were at most 0.005 µM, at most 2 µM and above 100 µM, respectively. The values for the CC50 in the series on RS4-11 cells and with MOLT-4 cells were 0.1 to 0.2 µM and 2 to 10 µM, respectively. For the same compound, the CC50 at 3 days in series [1] was at most 10 µM. In addition, the EC50 in series [2] lay within 0.1 to 0.25 µM.
On to `CN1CCN(C(=O)c2cccc(CN(C(=O)c3cc(-c4cc5c(cc4C(=O)N4Cc6ccccc6C[C@H]4CN4CCOCC4)OCO5)n4c3CCCC4)c3ccc(O)cc3)c2)CC1` [Compound 10, N-(4-hydroxyphenyl)-N-{3-[(4-methylpiperazin-1-yl)carbonyl]benzyl}-3-(6-{[(3S)-3-(morpholin-4-ylmethyl)-3,4-dihydroisoquinolin-2(1H)-yl]carbonyl}-1,3-benzodioxol-5-yl)-5,6,7,8-tetrahydroindolizine-1-carboxamide], for which the figures for the concentration for half-maximal inhibition (IC50) on BCL-2 and on MCL-1 were 0.005 to 0.01 µM and above 100 µM, respectively. Further, the figures for the CC50 with RS4-11 cells and in the series with MOLT-4 cells were above 0.2 µM and above 10 µM, respectively. In series [1], the CC50 at 3 days fell in the range of 10 to 25 µM. Also, in series [2], the EC50 is above 0.25 µM.
In the case of `O=C(c1cc(-c2cc3c(cc2C(=O)N2Cc4ccccc4C[C@H]2CN2CCOCC2)OCO3)n2c1CCCC2)N(Cc1ccccc1Cl)c1ccc(O)cc1` [Compound 33, N-(2-chlorobenzyl)-N-(4-hydroxyphenyl)-3-(6-{[(3S)-3-(morpholin-4-ylmethyl)-3,4-dihydroisoquinolin-2(1H)-yl]carbonyl}-1,3-benzodioxol-5-yl)-5,6,7,8-tetrahydroindolizine-1-carboxamide], the IC50 is at most 0.005 µM at BCL-2 and at most 2 µM at BCL-XL. Moreover, the values for the CC50 in the series with RS4-11 cells and in the series with MOLT-4 cells were at most 0.1 µM and at most 2 µM, respectively. In addition, the CC50 at 3 days in series [1] lay in the range of 10 to 25 µM. For the same compound, in series [2], the EC50 was at most 0.1 µM.
As to `Cc1cccc(Cl)c1CN(C(=O)c1cc(-c2cc3c(cc2C(=O)N2Cc4ccccc4C[C@H]2CN2CCOCC2)OCO3)n2c1CCCC2)c1ccc(O)cc1` [Compound 34, N-(2-chloro-6-methylbenzyl)-N-(4-hydroxyphenyl)-3-(6-{[(3S)-3-(morpholin-4-ylmethyl)-3,4-dihydroisoquinolin-2(1H)-yl]carbonyl}-1,3-benzodioxol-5-yl)-5,6,7,8-tetrahydroindolizine-1-carboxamide], the values for the 50% inhibitory concentration (IC50) on BCL-2 and at BCL-XL were above 0.05 µM and above 4 µM, respectively. The CC50 in the series on RS4-11 cells was above 0.2 µM; in the series on MOLT-4 cells it was at most 2 µM. Besides, the CC50 at 3 days in series [1] was above 25 µM. Besides, the EC50 in series [2] is above 0.25 µM.
Regarding `O=C(c1cc(-c2cc3c(cc2C(=O)N2Cc4ccccc4C[C@H]2CN2CCOCC2)OCO3)n2c1CCCC2)N(Cc1c(Cl)ccc(F)c1F)c1ccc(O)cc1` [Compound 35, N-(6-chloro-2,3-difluorobenzyl)-N-(4-hydroxyphenyl)-3-(6-{[(3S)-3-(morpholin-4-ylmethyl)-3,4-dihydroisoquinolin-2(1H)-yl]carbonyl}-1,3-benzodioxol-5-yl)-5,6,7,8-tetrahydroindolizine-1-carboxamide], the IC50 was 0.01 to 0.05 µM at BCL-2 and above 4 µM on BCL-XL. Also, the CC50 in the series on RS4-11 cells is above 0.2 µM; with MOLT-4 cells, at most 2 µM. Moreover, the CC50 at 3 days in series [1] is above 25 µM. Moreover, the EC50 in series [2] was above 0.25 µM.
`Cn1cnnc1CN(C(=O)c1cc(-c2cc3c(cc2C(=O)N2Cc4ccccc4C[C@H]2CN2CCOCC2)OCO3)n2c1CCCC2)c1ccc(O)cc1` [Compound 48, N-(4-Hydroxyphenyl)-N-[(4-methyl-1,2,4-triazol-3-yl)methyl]-3-[6-[(3S)-3-(morpholinomethyl)-3,4-dihydro-1H-isoquinoline-2-carbonyl]-1,3-benzodioxol-5-yl]-5,6,7,8-tetrahydroindolizine-1-carboxamide]: the IC50 at BCL-2 is at most 0.005 µM; on BCL-XL it was at most 2 µM. For the same compound, the values for the CC50 in the series with RS4-11 cells and with MOLT-4 cells were at most 0.1 µM and 2 to 10 µM, respectively. In addition, the 50% cytotoxic concentration (CC50) at 3 days in series [1] fell in the range of 10 to 25 µM. Besides, the EC50 in series [2] is at most 0.1 µM.
With `Cc1c(CN(C(=O)c2cc(-c3cc4c(cc3C(=O)N3Cc5ccccc5C[C@H]3CN3CCOCC3)OCO4)n3c2CCCC3)c2ccc(O)cc2)cccc1[N+](=O)[O-]` [Compound 50, N-(4-Hydroxyphenyl)-N-[(2-methyl-3-nitro-phenyl)methyl]-3-[6-[(3S)-3-(morpholinomethyl)-3,4-dihydro-1H-isoquinoline-2-carbonyl]-1,3-benzodioxol-5-yl]-5,6,7,8-tetrahydroindolizine-1-carboxamide], the half-inhibitory concentration (IC50) is above 0.05 µM on BCL-2 and above 4 µM at BCL-XL. The CC50 with RS4-11 cells was above 0.2 µM; in the series on MOLT-4 cells it was 2 to 10 µM. Further, the half-maximal cytotoxic concentration (CC50) at 3 days in series [1] was above 25 µM. Moreover, the EC50 in series [2] is above 0.25 µM.

For the origin of these results see US11697650B2, “Compounds having tetrahydroindolizine-1-carboxamide as BCL-2 inhibitors” (Eil Therapeutics, Inc., priority 2021, dated 2023).
